{"source": "patent US20240301319A1", "about": "“PERFUMING COMPOSITIONS” (FIRMNICH SA, priority 2017, published 2024)", "key": {"[1]": {"assay": "Odor threshold and odor value of perfuming compounds (Tables 4 to 10)"}, "[2]": {"assay": "Volatility of perfuming compounds (Tables 4 to 10), with top/middle/bottom note type", "format": "physicochemical", "how_it_was_run": "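Volatility is expressed in μg/l in air. Top notes are 70,000 to 100 μg/l, middle notes 99 to 50 μg/l, and bottom notes 49 to 0.1 μg/l. Compounds are grouped by olfactive family: watery, green, fruity, citrus, sweet, gourmand and woody.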"}, "[3]": {"settings": "Table 6, perfuming compounds having a fruity note"}, "[4]": {"settings": "Table 7, citrus note, equals volatility divided by odor threshold"}, "[5]": {"settings": "Table 6, perfuming compounds having a fruity note, note type by volatility"}, "[6]": {"settings": "Table 7, citrus note, top, middle or bottom note"}, "[7]": {"settings": "Table 10, perfuming compounds having a woody note, note type by volatility"}, "[8]": {"settings": "Table 8, perfuming compounds having a sweet note"}, "[9]": {"settings": "Table 8, perfuming compounds having a sweet note, note type by volatility"}, "[10]": {"settings": "perfuming compounds having a green note"}, "[11]": {"settings": "Table 9, perfuming compounds having a gourmand note, note type by volatility"}, "[12]": {"settings": "note type (Top/Middle/Bottom) by volatility, perfuming compounds having a green note"}, "[13]": {"settings": "Table 4, watery note, equals volatility divided by odor threshold"}, "[14]": {"settings": "Table 4, watery note, top, middle or bottom note"}}}
{"molecule": "C/C=C/c1ccc(OC(C)=O)c(OC)c1", "note": "[(E)-2-METHOXY-4-(1-PROPENYL)PHENYL ACETATE]", "values": [{"measurement": "Odor Threshold", "setting": "[1]; [3]", "result": "4.08E−07", "unit": "μg/l air"}, {"measurement": "Odor Value", "setting": "[1]; [3]", "result": "4.54E+06"}, {"measurement": "Odor Threshold (μg/l air)", "setting": "[1]; Table 7, citrus note", "result": "4.08E−07", "unit": "μg/l air"}, {"measurement": "Odor Value", "setting": "[1]; [4]", "result": "4.54E+06"}, {"measurement": "Volatility", "setting": "[2]; [3]", "result": 1.85, "unit": "μg/l air"}, {"measurement": "Type", "setting": "[2]; [5]", "result": "Bottom"}, {"measurement": "Volatility (μg/l air)", "setting": "[2]; Table 7, citrus note", "result": 1.85, "unit": "μg/l air"}, {"measurement": "Type", "setting": "[2]; [6]", "result": "Bottom"}]}
{"molecule": "C=C1C2CCC(C)(OCC)C1CCC2(C)C", "note": "(racemic)", "values": [{"measurement": "Odor Threshold", "setting": "[1]; Table 10, woody note", "result": "1.37E−01", "unit": "μg/l air"}, {"measurement": "Type", "setting": "[2]; [7]", "result": "Top"}, {"measurement": "Volatility", "setting": "[2]; Table 10, woody note", "result": 135.00, "unit": "μg/l air"}]}
{"molecule": "CC1(C)C2C[C@H]3CCC(=O)C=C3[C@@H]1C2", "note": "(single isomer, unassigned; (+))", "values": [{"measurement": "Odor Threshold", "setting": "[1]; Table 10, woody note", "result": "2.86E−05", "unit": "μg/l air"}, {"measurement": "Type", "setting": "[2]; [7]", "result": "Bottom"}, {"measurement": "Volatility", "setting": "[2]; Table 10, woody note", "result": 4.86, "unit": "μg/l air"}]}
{"molecule": "CC=CC(=O)C(C)CC", "note": "(stereo not drawn) [5-METHYL-2-HEPTEN-4-ONE]", "values": [{"measurement": "Odor Threshold", "setting": "[1]; [8]", "result": "7.62E−07", "unit": "μg/l air"}, {"measurement": "Odor Value", "setting": "[1]; [8]", "result": "7.26E+09"}, {"measurement": "Volatility", "setting": "[2]; [8]", "result": 5525.83, "unit": "μg/l air"}, {"measurement": "Type", "setting": "[2]; [9]", "result": "Top"}]}
{"molecule": "CCC(=CCC1CC=C(C)C1(C)C)CO", "note": "(racemic)", "values": [{"measurement": "Odor Threshold", "setting": "[1]; Table 10, woody note", "result": "7.80E−05", "unit": "μg/l air"}, {"measurement": "Type", "setting": "[2]; [7]", "result": "Bottom"}, {"measurement": "Volatility", "setting": "[2]; Table 10, woody note", "result": 3.69, "unit": "μg/l air"}]}
{"molecule": "C=CCOC(=O)CCC1CCCCC1", "note": "[ALLYL 3-CYCLOHEXYLPROPANOATE]", "values": [{"measurement": "Odor Threshold", "setting": "[1]; [3]", "result": "7.96E−03", "unit": "μg/l air"}, {"measurement": "Odor Value", "setting": "[1]; [3]", "result": "9.53E+03"}, {"measurement": "Odor Threshold", "setting": "[1]; [8]", "result": "7.96E−03", "unit": "μg/l air"}, {"measurement": "Odor Value", "setting": "[1]; [8]", "result": "9.53E+03"}, {"measurement": "Odor Threshold", "setting": "[1]; Table 9, gourmand note", "result": "7.96E−03", "unit": "μg/l air"}, {"measurement": "Odor Threshold (μg/l air)", "setting": "[1]; [10]", "result": "7.96E−03", "unit": "μg/l air"}, {"measurement": "Volatility", "setting": "[2]; [3]", "result": 75.80, "unit": "μg/l air"}, {"measurement": "Type", "setting": "[2]; [5]", "result": "Middle"}, {"measurement": "Volatility", "setting": "[2]; [8]", "result": 75.80, "unit": "μg/l air"}, {"measurement": "Type", "setting": "[2]; [9]", "result": "Middle"}, {"measurement": "Volatility", "setting": "[2]; Table 9, gourmand note", "result": 75.80, "unit": "μg/l air"}, {"measurement": "Type", "setting": "[2]; [11]", "result": "Middle"}, {"measurement": "Type", "setting": "[2]; [12]", "result": "Middle"}, {"measurement": "Volatility (μg/l air)", "setting": "[2]; [10]", "result": 75.80, "unit": "μg/l air"}]}
{"molecule": "CC(=O)OCC=C(C)C", "note": "[3-methyl-2-buten-1-yl acetate]", "values": [{"measurement": "Odor Threshold (μg/l air)", "setting": "[1]; [10]", "result": "5.58E−02", "unit": "μg/l air"}, {"measurement": "Volatility", "setting": "[2]; [3]", "result": 27705.98, "unit": "μg/l air"}, {"measurement": "Type", "setting": "[2]; [5]", "result": "TOP (perfuming compounds having a volatility ranging from 70,000 to 100 μg/l in air are referred to as “top notes”)"}, {"measurement": "Type", "setting": "[2]; [12]", "result": "Top"}, {"measurement": "Volatility (μg/l air)", "setting": "[2]; [10]", "result": 27705.98, "unit": "μg/l air"}]}
{"molecule": "CITRONELLOL (A) + GERANIOL (B)", "values": [{"measurement": "Odor Threshold (μg/l air)", "setting": "[1]; Table 7, citrus note", "result": "7.69E−04", "unit": "μg/l air"}, {"measurement": "Volatility (μg/l air)", "setting": "[2]; Table 7, citrus note", "result": 89.88, "unit": "μg/l air"}, {"measurement": "Type", "setting": "[2]; [6]", "result": "Middle"}]}
{"molecule": "CCCCC/C=C\\C=C\\C(=O)OCC", "note": "[ethyl (2E,4Z)-2,4-decadienoate]", "values": [{"measurement": "Odor Threshold", "setting": "[1]; [3]", "result": "3.07E−04", "unit": "μg/l air"}, {"measurement": "Odor Value", "setting": "[1]; [3]", "result": "1.20E+05"}, {"measurement": "Odor Threshold (μg/l air)", "setting": "[1]; [10]", "result": "3.07E−04", "unit": "μg/l air"}, {"measurement": "Volatility", "setting": "[2]; [3]", "result": 36.76, "unit": "μg/l air"}, {"measurement": "Type", "setting": "[2]; [5]", "result": "Bottom"}, {"measurement": "Type", "setting": "[2]; [12]", "result": "Bottom"}, {"measurement": "Volatility (μg/l air)", "setting": "[2]; [10]", "result": 36.76, "unit": "μg/l air"}]}
{"molecule": "C/C=C/c1ccc(OC)cc1", "note": "[1-methoxy-4-[(1E)-1-propen-1-yl]benzene]", "values": [{"measurement": "Odor Threshold", "setting": "[1]; [8]", "result": "1.23E−03", "unit": "μg/l air"}, {"measurement": "Odor Value", "setting": "[1]; [8]", "result": "1.51E+05"}, {"measurement": "Odor Threshold", "setting": "[1]; Table 9, gourmand note", "result": "1.23E−03", "unit": "μg/l air"}, {"measurement": "Volatility", "setting": "[2]; [3]", "result": 184.60, "unit": "μg/l air"}, {"measurement": "Type", "setting": "[2]; [5]", "result": "TOP (perfuming compounds having a volatility ranging from 70,000 to 100 μg/l in air are referred to as “top notes”)"}, {"measurement": "Volatility", "setting": "[2]; [8]", "result": 184.60, "unit": "μg/l air"}, {"measurement": "Type", "setting": "[2]; [9]", "result": "Top"}, {"measurement": "Volatility", "setting": "[2]; Table 9, gourmand note", "result": 184.60, "unit": "μg/l air"}, {"measurement": "Type", "setting": "[2]; [11]", "result": "Top"}]}
{"molecule": "(3Z)-1,3-undecadien-5-yne (A) + (3E)-1,3-undecadien-5-yne (B)", "values": [{"measurement": "Odor Threshold (μg/l air)", "setting": "[1]; Table 7, citrus note", "result": "3.32E−03", "unit": "μg/l air"}, {"measurement": "Odor Value", "setting": "[1]; [4]", "result": "2.98E+05"}, {"measurement": "Volatility (μg/l air)", "setting": "[2]; Table 7, citrus note", "result": 990.87, "unit": "μg/l air"}, {"measurement": "Type", "setting": "[2]; [6]", "result": "Top"}]}
{"molecule": "CCC(=O)OC/C=C/c1ccccc1", "note": "[(E)-3-PHENYL-2-PROPENYL PROPANOATE]", "values": [{"measurement": "Odor Threshold", "setting": "[1]; [3]", "result": "1.28E−04", "unit": "μg/l air"}, {"measurement": "Odor Value", "setting": "[1]; [3]", "result": "6.35E+04"}, {"measurement": "Volatility", "setting": "[2]; [3]", "result": 8.14, "unit": "μg/l air"}, {"measurement": "Type", "setting": "[2]; [5]", "result": "Bottom"}]}
{"molecule": "CC(C)=CCCC(C)CCCC(C)C=O", "note": "(racemic)", "values": [{"measurement": "Odor Threshold (μg/l air)", "setting": "[1]; Table 4, watery note", "result": "1.59E−02", "unit": "μg/l air"}, {"measurement": "Odor Value", "setting": "[1]; [13]", "result": "1.15E+03"}, {"measurement": "Volatility (μg/l air)", "setting": "[2]; Table 4, watery note", "result": 18.23, "unit": "μg/l air"}, {"measurement": "Type", "setting": "[2]; [14]", "result": "bottom (perfuming compounds having a volatility ranging from 49 to 0.1 μg/l in air are referred to as “bottom notes”)"}]}
{"molecule": "CCCCCCCOC(C)=O", "note": "[heptyl acetate]", "values": [{"measurement": "Odor Threshold (μg/l air)", "setting": "[1]; Table 7, citrus note", "result": "1.32E−01", "unit": "μg/l air"}, {"measurement": "Odor Value", "setting": "[1]; [4]", "result": "2.14E+04"}, {"measurement": "Volatility", "setting": "[2]; [3]", "result": 2814.34, "unit": "μg/l air"}, {"measurement": "Type", "setting": "[2]; [5]", "result": "TOP (perfuming compounds having a volatility ranging from 70,000 to 100 μg/l in air are referred to as “top notes”)"}, {"measurement": "Volatility (μg/l air)", "setting": "[2]; Table 7, citrus note", "result": 2814.34, "unit": "μg/l air"}, {"measurement": "Type", "setting": "[2]; [6]", "result": "Top"}]}
{"molecule": "CC(C)c1ccc2c(c1)OCC(=O)CO2", "note": "[7-ISOPROPYL-2H,4H-1,5-BENZODIOXEPIN-3-ONE]", "values": [{"measurement": "Odor Threshold (μg/l air)", "setting": "[1]; Table 4, watery note", "result": "3.20E−06", "unit": "μg/l air"}, {"measurement": "Odor Value", "setting": "[1]; [13]", "result": "1.77E+07"}, {"measurement": "Volatility (μg/l air)", "setting": "[2]; Table 4, watery note", "result": 56.74, "unit": "μg/l air"}, {"measurement": "Type", "setting": "[2]; [14]", "result": "middle (perfuming compounds having a volatility ranging from 99 to 50 μg/l in air are referred to as “middle notes”)"}]}
